Values joined by “and” are separate entries in the source; they are usually repeats but may differ in a detail not shown here. Equal entries are not always repeated.
Test system: Hepatitis B virus (HBV) genotype C
Test: HBV DNA content in culture supernatants of HBV-infected PXB hepatocytes, quantitative PCR with TaqMan probe
Format: cell-based, human hepatitis B virus
Details: for DNA content of HBV in the culture supernatants: PXB hepatocytes, replicates No. 1-3
Protocol: PXB hepatocytes prepared from “PXB-Mouse (registered trademark)” (manufactured by PhoenixBio) were used as test samples to examine the effect of a change in virus load by adding 5-ALA or the like to a medium. […] Therefore, PXB-Mouse is utilized as a human in vivo prediction model of hepatitis virus infections in pharmacokinetic studies.
Hepatitis B virus (HBV) genotype C was suspended in dHCGM medium (DMEM+10% FBS, 44 mM NaHCO3, 15 μg/mL L-proline, 0.25 μg/mL insulin, 50 […], 5 ng/mL EGF, 0.1 mM Asc-2P, 2% DMSO) containing 4% polyethylene glycol in the virus load of 2×10^6 per well to give 250 μL/well of a HBV infection medium. The sequence of HBV genotype C is disclosed in a public data bank such as GenBank and the accession number is AB246345.1.
5-ALA and sodium ferrous citrate (SFC) were blended in dHCGM medium at the concentrations shown in Table 1 below to prepare 250 μL each of test media. As a positive control medium, a medium prepared by dissolving 2.5 nM entecavir (manufactured by Santa Cruz Biotechnology, Inc.) in dHCGM medium was used.
PXB hepatocytes, which are primary cultured liver cells isolated by a two-step collagenase perfusion procedure (Yamasaki C, et al. Drug Metab Pharmacokinet. 2010, 25:539-550.) from 12- to 16-week-old PXB mice having a body weight of 11 g or more, were suspended in Dulbecco's modified Eagle's medium (DMEM) with 10% fetal bovine serum (FBS) (DMEM+10% FBS) containing 100 IU/mL penicillin G, 100 μg/mL streptomycin and 20 mM HEPES, seeded in a 24-well plate coated with type I collagen at a density of 4×10^5 cells/well, and incubated at 37° C. under 5% CO2. The next day, the medium was removed, and 500 μL of DMEM+10% FBS was then added to each well. Thereafter, the medium was removed again, 250 μL of the above-mentioned HBV infection medium or a non-infection medium and 250 μL each of the above-mentioned test medium were added to each well to provide 500 μL each of evaluation media. The evaluation media were incubated at 37° C. under 5% CO2 for 20 to 28 hours. On day 1, 2, 7, 12 and 17 after HBV virus infection, the media were replaced by 500 μL each of the above-mentioned evaluation media. On day 12, 17 and 22 after the virus infection, culture supernatants were collected and the DNA content of HBV in the supernatants was determined by a quantitative PCR assay with TaqMan probe. The incubation period after the virus infection was 22 days. The results are shown in the following Tables 2 and 3 and the graph of FIG. 1. The ordinate of FIG. 1 indicates the DNA content of HBV in the culture supernatants.

## NCC(=O)CCC(=O)O [ALA, 5-aminolevulinic acid]
ALA 1 mM, day 12 after virus infection
  DNA content of HBV in the culture supernatants: 6.0 log copies/mL and 6.1 log copies/mL and 5.8 log copies/mL
ALA 1 mM, day 17 after virus infection
  DNA content of HBV in the culture supernatants: 6.0 log copies/mL (2×) and 5.8 log copies/mL
ALA 1 mM, day 22 after virus infection
  DNA content of HBV in the culture supernatants: 6.1 log copies/mL and 5.9 log copies/mL and 6.0 log copies/mL

## C=C1[C@H](CO)[C@@H](O)C[C@@H]1n1cnc2c(=O)[nH]c(N)nc21 [ETV, entecavir, reference compound]
ETV 2.5 nM (positive control), day 12 after virus infection
  DNA content of HBV in the culture supernatants: 4.4 log copies/mL
ETV 2.5 nM (positive control), day 17 after virus infection
  DNA content of HBV in the culture supernatants: 4.2 log copies/mL and 4.8 log copies/mL and 4.1 log copies/mL
ETV 2.5 nM (positive control), day 22 after virus infection
  DNA content of HBV in the culture supernatants: 4.4 log copies/mL and 4.0 log copies/mL and 3.9 log copies/mL

## sodium ferrous citrate [SFC]
SFC 0.5 mM, day 12 after virus infection
  DNA content of HBV in the culture supernatants: 6.1 log copies/mL (2×) and 6.2 log copies/mL
SFC 500 μM, day 12 and 17 after the virus infection, P<0.05
  proliferation of HBV virus (FIG. 1): significantly inhibited
SFC 0.5 mM, day 17 after virus infection
  DNA content of HBV in the culture supernatants: 6.3 log copies/mL and 6.4 log copies/mL (2×)
SFC 0.5 mM, day 22 after virus infection
  DNA content of HBV in the culture supernatants: 6.5 log copies/mL

Reference: patent US20180125805A1, “PROPHYLACTIC/THERAPEUTIC AGENT FOR VIRUS INFECTIONS WHICH COMPRISES ALA COMPOUND” (SBI Pharmaceuticals Co., Ltd., priority 2015, published 2018)
